Results taken from US12709645B2, “Targeting gene amplification in cancer using triplex formation as a therapeutic strategy” (Yale University, priority 2018, dated 2026).

Columns and labels:
BT474 cells [1] = test: Neutral comet assay in BT474 cells; format: cell-based, human; details: 24 hours post-treatment
Description: (§1) Cells were seeded in six-well plates at a density of 2-4×10^5 cells per well the day before transfection. Cells were transfected with 2 μg of HER2-targeted TFO or MIX24 using Oligofectamine (Invitrogen) or Dharmafect-1 (Dharmacon) transfection reagent. Transfection was performed as per manufacturer's instructions. siRNA directed against p53, XPD and non-target controls (ON-Target plus SMARTpool reagents; (Dharmacon) were transfected into BT474 cells using Dharmafect-1 transfection reagent (Dharmacon) according to the manufacturers instructions. Western blot analysis was used to confirm knockdown of protein.
(§2) Comet Assay. Neutral cornet assays were performed 24 h post TFO-transfection as per the manufacturers instructions (Trevigen) with the adjustment of 3.5×10^5 cells/ml for each single cell suspension and 30 minutes electrophoresis. Comets were visualized using an Axiovert 200 microscope and analyzed with Autocomet software. Approximately 100-200 comets were analyzed per experiment. Results were expressed as mean tail moment.

HER2 [2] = test: Western blot of total HER2 protein and phosphorylation levels; format: cell-based, human; details: HER2-positive cells compared to control samples
Description: (§3) Western blotting. Whole cell lysates were prepared from floating and adherent cells using RIPA buffer according to standard protocols. Total protein (30-50 μg per sample) was resolved by SDS-PAGE. Proteins were detected by a standard immunoblot protocol using the following primary antibodies: cleaved PARP, cleaved caspase 3, γH2AX, XPD, p53, HER2, pHER2 ([…]), HER3, pHER3 (Y1289), HER4, pHER4 (Y1284), EGFR, pEGFR (Y1068), Chk1, pChk1(S345), pChk2 (T68), and Chk2 (Cell Signaling Technology); pH2AX (tyrosine 142; EMD Millipore); tubulin (clone B-512; Sigma), and GAPDH-HRP (Proteintech). Each experiment was repeated with independent sample preparation a minimum of three times, and representative western blots are shown.

[3] = tested on: SKOV3 ovarian cancer xenografts; test: SKOV3 ovarian cancer subcutaneous xenograft model; details: HER2-205 20 mg/kg vs cisplatin 10 mg/kg, IP
Description: To establish an ovarian cancer model, female BALB/c athymic nude mice were injected subcutaneously in the flank with 5×10^6 SKOV3 cells suspended in 100 μl equal volume of media and Matrigel. Mice bearing a tumor of about 100 mm^3 in volume were randomly divided into three treatment groups: vehicle (PBS), n=5; HER2-targeted TFO, HER2-205, n=5; and cisplatin, n=7. […] Tumor volumes were monitored and tumor tripling times were calculated as described above.

HER2-positive cell lines = test: Annexin-V apoptosis analysis in breast cancer cell lines; format: cell-based, human; details: 24 h post TFO-treatment
Description: (§4) Cell Lines and Transfections. Human breast cancer cell lines were obtained from ATCC and routinely tested for mycoplasma. The human cell lines, MDA-MB-453, SKBR3, and BT474 are HER2-amplified breast cancer cell lines. BT20 and MCF7 cells are non-amplified breast cancer cell lines. MCF-10A is a non-tumorigenic breast epithelial cell line. PEO1 and SKOV3 are human ovarian cancer cell lines with HER2 gene amplification.
(§5) Apoptosis analysis. Cells (2−4×10^5) were seeded in six-well plates 24 h prior to treatment with MIX24, HER2-1 or HER2-205 (2 μg). Post-treatment analysis was performed using the Annexin V-FITC/PI apoptosis detection kit (BD Pharmingen) according to the manufacturers protocol. Apoptotic frequency was calculated as the combined percentage of early and late apoptotic cells. Data analysis was performed using Flow-Jo software.

BT474 cells [4] = test: Apoptosis after XPD knockdown in BT474 cells (Western blot); format: cell-based, human; details: siRNA XPD knockdown
Description: as §1, §3

[5] = tested on: cell lines containing multiple copies of the HER2 gene; test: Neutral comet assay in breast cancer cell lines; format: cell-based, human; details: 24 h after treatment
Description: as §4, §1
Comet Assay. […] Comets were visualized using an Axiovert 200 microscope and analyzed with Autocomet software. Approximately 100-200 comets were analyzed per experiment. Results were expressed as mean tail moment.

PE01 and SKOV3 cells [6] = test: Monolayer growth survival assay in ovarian cancer cells; format: cell-based, human; details: 72 h after treatment
Description: Survival Assay. Cell survival seas assayed by visualization of monolayer growth. Briefly, cells were plated at a defined density in 6 or 12-well dishes and treated with either transfection reagent alone (mock), MIX24, or HER2-205 as previously described. Monolayers were visualized by staining cells with crystal violet 72 h post-treatment.

[7] = tested on: BT474 human breast cancer tumors; test: BT474 breast cancer subcutaneous xenograft model; format: in vivo, athymic nude mice; details: for tumor growth relative to controls / tumor tripling time post-initial dose: 20 mg/kg IP, 3 doses over 7 days
Description: Six to seven-week old female BALB/c athymic, ovariectomized nude mice (Harlan Sprague-Dawley) were implanted with 0.72 mg, 60-day release 17β-estradiol pellets (Innovative Research). […] Tumor volumes in each group were then monitored and mice were sacrificed when tumor volumes reached 1000 mm^3. Error bars represent standard error of the mean. Tumor tripling time was calculated as the time required for tumors to increase in volume […] over baseline (defined as tumor volume before administration of dose on first day of treatment). Harvested tumors were fixed in 10% neutral buffered formalin and processed by Yale Pathology Tissue Services for H&E, Caspase 3, HER2, and Ki67. Images were taken at 4× magnification.

Chk1 = test: Western blot of DNA damage response protein phosphorylation; format: cell-based, human; details: HER2-amplified vs normal copy number cells
Description: as §3

PE01 and SKOV3 cells [8] = test: Immunofluorescence of γH2AX foci in ovarian cancer cells; format: cell-based, human; details: 24 h
Description: (§6) Immunofluorescence. Cells were seeded onto UV-irradiated coverslips and were treated for 24 h with HER2-205, MIX24, or a mock transfection. Cells were processed 24 h post-transfection, fixed with 4% formaldehyde and then incubated with ice-cold 100% methanol for 20 minutes followed by a methanol and acetone solution (1:1) for 20 minutes each at −20° C. After washing with PBS, cells were blocked with blocking buffer (4% BSA, 0.2% Triton X-100 in PBS) for 30 minutes and then incubated overnight with the following primary antibodies: γH2AX (1:500; Cell Signaling or Millipore) and 53BP1 (1:100; Santa Cruz) in blocking buffer at 4° C. After three washes, cells were incubated with secondary antibodies Alexa 488 F(ab′)2 fragment goat anti-rabbit IgG or Alexa 568 F(ab′)2 fragment goat anti-mouse IgG (1:1000; Molecular Probes) for 1 h at room temperature. Cells were then mounted on microscope glass slides with anti-fade mounting media containing DAPI (Life Technologies), and pictures were taken with a Leica SP5 microscope. Immunofluorescence experiments were repeated for validation.

BT474 cells [9] = test: Flow cytometry of phosphorylated ATM; format: cell-based, human; details: 24 h
Description: Flow Cytometry. BT474 cells were collected 24 h following treatment with either MIX24 HER2-205. After washing with PBS, cells were incubated with 1% paraformaldehyde for 15 minutes on ice. Cells were then fixed with cold 70% ethanol at −20° C. for 2 h or kept for up to 2 weeks until further analysis. Cells were centrifuged and rinsed with PBS, blocked with PBST buffer (1% w/v bovine serum albumin and 0.2% v/v Triton X-100 in PBS) for 15 minutes on ice, followed by another PBS rinse. Cells were first incubated with anti-phospho-ATM (S1981, EMD Millipore) in PBST at 1:100 dilution for 1 h at room temperature. Cells were rinsed with PBST and incubated with anti-rabbit IgG Fab2 Alexa 488 (Molecular Probes) at 1:100 dilution at room temperature for 1 h, and then rinsed with PBST. Acquisition of labeled cells and analysis of data was completed using a flow cytometer (FACS Calibur) and FlowJo software respectively.

PE01 and SKOV3 cells [10] = test: Apoptosis in ovarian cancer cells (Annexin V, cleaved PARP); format: cell-based, human; details: Annexin V 48 h post-treatment
Description: as §3, §5

BT474 cells [11] = test: Immunofluorescence of γH2AX and 53BP1 foci in BT474 cells; format: cell-based, human
Description: as §6

HER2 [12] = test: HER2 gene expression by RT-PCR; format: cell-based, human; details: non-amplified and amplified breast cancer cell lines
Description: Gene Expression. RNA was extracted from snap-frozen cells using the RNeasy Kit (Qiagen) per the manufacturers protocol. cDNA synthesis was carried out with 10 μg of RNA via reverse transcription reactions and the High-Capacity cDNA Reverse Transcription Kit (ThermoFisher Scientific). cDNA (10 ng) was then combined with TaqMan Universal PCR master mix (20 μl) (Applied Biosystem) and primers specific to HER2 (HER2, Hs01001580_m1, ThermoFisher Scientific) or the internal control, β-actin (Hs99999903_m1, ThermoFisher Scientific). qRT-PCR was performed in 96-well optical plates in triplicate for each sample. Briefly, reactions were performed at 50° C. for 2 minutes, followed by 95° C. for 10 minutes. Amplification of the target or control gene was carried out with 40 cycles of the two-step reaction, which included 95° C. for 15 seconds and 1 minute at 60° C. β-actin expression levels were used to normalize the difference between cDNA levels in different samples. Relative expression levels were calculated using the 2(-Delta Delta C(T)) method.

PE01 and SKOV3 cells [13] = test: Neutral comet assay in ovarian cancer cells; format: cell-based, human
Description: as §2

[14] = 24 h after single dose 20 mg/kg

With “HER2-40118: TFO targeting intron 19 of the HER2 gene, 5′-GGGGGAAATAGGGAGGGTGGGG-3′ (triplex-forming oligonucleotide, chemistry not given here, further chemistry not given here)” the “DSBs as indicated by DNA tail moment” value (BT474 cells [1]) was “significantly, more DSBs”.

With “HER2-205: TFO binding a polypurine sequence in the HER2 coding region, 5′-GAGGAGGAGTGGGAGAATGGGGGG-3′ (DNA GAGGAGGAGTGGGAGAATGGGGGG; DNA, backbone not given here)” the “total and activated HER2 levels” value (HER2 [2]) was “remain the same”, the “survival (tumors smaller than three times baseline) compared with cisplatin” value ([3]; 3 doses) was “substantial survival advantage” and the “average tumor volume smaller than in cisplatin-treated mice” value ([3]; 3 doses once per week) was 49%. For the same substance, the “percentage of apoptotic cells (Annexin-V)” value (HER2-positive cell lines) was “higher percentage of apoptotic cells than that with HER2-1”, the “phosphorylation of Y142 in H2AX and activation of apoptosis” value (BT474 cells [4]) was “requirement for XPD” and the “DSBs as indicated by DNA tail moment” value [5] was “significantly more DSBs”. The “cell viability (monolayer growth)” value (PE01 and SKOV3 cells [6]) was “reduced cell viability”, the “tumor growth relative to controls” value [7] was “suppressed tumor growth to a significantly greater degree than the controls” and the “tumor tripling time post-initial dose” value [7] was 29 ± 5.7 days. For the same substance, the “proliferation by Ki67 staining in tumor sections” value [7, 14] was “decreased proliferation”, the “tumor cell apoptosis (cleaved caspase 3) in tumor sections” value [7, 14] was “Tumor cell apoptosis” and the “reduction in tumor volumes compared to controls” value ([7]; HER2-positive breast cancer xenografts) was 52%. The “Chk1 phosphorylation at serine 345” value (Chk1) was “observed after HER2-205 treatment in the HER2-amplified cells and not in the cells with normal HER2 gene copy numbers”, the “DSBs as indicated by DNA tail moment” value (BT474 cells [1]) was “significantly, more DSBs” and the γH2AX foci (PE01 and SKOV3 cells [8]) was “increased”. The pATM positive cells (BT474 cells [9]) was “increase”, the apoptosis (PE01 and SKOV3 cells [10]) was “activated apoptosis” and the “colocalization of γH2AX and 53BP1, percent of cells” value (BT474 cells [11]; 24 h) was 49%. The “γH2AX and 53BP1 foci compared to MIX24” value (BT474 cells [11]; 24 h post-treatment) was “substantially increased”, the HER2 gene expression (HER2 [12]) was “not significantly affected” and the DNA tail moments (PE01 and SKOV3 cells [13]) was “increased”.

With “MIX24: control mixed-sequence oligonucleotide, 5′-AGTCAGTCAGTCAGTCAGTCAGTC-3′ (DNA AGTCAGTCAGTCAGTCAGTCAGTC; listed as DNA, chemistry not given here) [reference compound]” the “tumor growth relative to controls” value [7] was “no impact” and the “tumor tripling time post-initial dose” value [7] was 16.3 ± 6.6 days.

In the case of “HER2-5922-2: TFO targeting intron 2 of the HER2 gene, 5′-GGGAAAGAGGAGGGGGTGAGAGGAGTGGGG-3′ (triplex-forming oligonucleotide, chemistry not given here, further chemistry not given here)”, the “DSBs as indicated by DNA tail moment” value (BT474 cells [1]) is reported as “significantly, more DSBs”.
